Laboratory results as given in patent US20220402935A1, “HETEROCYCLIC COMPOUND” (FIMECS, INC., priority 2019, published 2022).

Each compound was assayed against T1, IRAK-M (Homo sapiens, UniProt Q9Y616) (assay: IRAK-M binding inhibitory activity (KINOMEscan active site-dependent competitive assay)). Settings: concentration of the test compound 1 μM; first symbol of cell; read-out: IRAK-M binding inhibition activity % Ctrl.
T1 sequence (Q9Y616 1-596): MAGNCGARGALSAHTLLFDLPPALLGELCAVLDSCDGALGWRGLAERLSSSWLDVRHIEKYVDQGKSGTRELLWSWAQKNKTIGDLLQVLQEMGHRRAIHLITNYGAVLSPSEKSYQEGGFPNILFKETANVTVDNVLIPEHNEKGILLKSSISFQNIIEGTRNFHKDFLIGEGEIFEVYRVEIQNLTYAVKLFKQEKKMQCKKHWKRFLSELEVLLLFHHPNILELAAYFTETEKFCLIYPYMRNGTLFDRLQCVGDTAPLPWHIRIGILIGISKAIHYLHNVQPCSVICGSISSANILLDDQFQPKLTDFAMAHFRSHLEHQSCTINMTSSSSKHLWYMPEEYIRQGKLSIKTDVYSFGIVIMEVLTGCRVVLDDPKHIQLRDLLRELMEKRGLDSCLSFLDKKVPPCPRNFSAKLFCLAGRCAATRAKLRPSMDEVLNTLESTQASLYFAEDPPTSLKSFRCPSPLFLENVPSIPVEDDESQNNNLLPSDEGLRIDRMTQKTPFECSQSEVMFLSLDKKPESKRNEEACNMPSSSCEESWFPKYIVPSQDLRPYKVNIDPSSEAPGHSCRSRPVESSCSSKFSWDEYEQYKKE
Design: purchased Eurofins Discover X
Protocol: IRAK-M binding inhibitory activity was evaluated using active site-dependent competitive assay KINOMEscan® provided by Eurofins Discover X (Goldstein, D. M. et al. High-throughput kinase profiling as a platform for drug discovery. Nat. Rev. Drug Discovery. 7, 391-397 (2008)). IRAK-M binding inhibitory activity of the test compound was evaluated. […] The “% Ctrl” is calculated by the following formula.
(test compound signal−positive control compound signal)/(negative control compound signal−positive control compound signal)×100
Negative control compound=DMSO (100 Ctrl)
Positive control compound=control compound (0%×Ctrl)

First: c1cc(Nc2ncnc3ccsc23)ccn1 [Ref. example 21, N-(pyridin-4-yl)thieno[3,2-d]pyrimidin-4-amine]
Second: COc1cc(Nc2ncnc3ccsc23)ccn1 [Ref. example 23, N-(2-methoxypyridin-4-yl)thieno[3,2-d]pyrimidin-4-amine]
The remaining binding at 1 µM of the first is lower: < 25% for the first, 25 to 50% for the second.

`FC(F)(F)c1cc(Nc2ncnc3ccsc23)ccn1` [Ref. example 22, N-(2-(trifluoromethyl)pyridin-4-yl)thieno[3,2-d]pyrimidin-4-amine] and `FC(F)(F)c1ncccc1Nc1ncnc2ccsc12` [Ref. example 24, N-(2-(trifluoromethyl)pyridin-3-yl)thieno[3,2-d]pyrimidin-4-amine] fall in the same range of remaining binding at 1 µM: 50 to 75% for the first, 50 to 75% for the second.

First: Cc1cc(Nc2ncnc3ccsc23)n(-c2ccccn2)n1 [Ref. example 25, N-(3-methyl-1-(pyridin-2-yl)-1H-pyrazol-5-yl)thieno[3,2-d]pyrimidin-4-amine]
Second: c1nc(Nc2ccc3[nH]cnc3c2)c2sccc2n1 [Ref. example 26, N-(1H-benzo[d]imidazol-5-yl)thieno[3,2-d]pyrimidin-4-amine]
The remaining binding at 1 µM of the first is lower: 25 to 50% for the first, ≥ 75% for the second.

Compared with `O=C1NC(=O)c2cc(Nc3ncnc4ccsc34)ccc21` [Ref. example 27, 5-(thieno[3,2-d]pyrimidin-4-ylamino)isoindoline-1,3-dione], `O=C1OCc2cc(Nc3ncnc4ccsc34)ccc21` [Ref. example 29, 5-(thieno[3,2-d]pyrimidin-4-ylamino)isobenzofuran-1(3H)-one] is lower in remaining binding at 1 µM: 50 to 75% for the first, 25 to 50% for the second.

`c1nc(Nc2ccc3cn[nH]c3c2)c2sccc2n1` [Ref. example 28, N-(1H-indazol-6-yl)thieno[3,2-d]pyrimidin-4-amine] and `NC(=O)c1ccc(Nc2nc(Cl)nc3ccsc23)cc1` [Ref. example 33, 4-((2-chlorothieno[3,2-d]pyrimidin-4-yl)amino)benzamide] cannot be ordered by remaining binding at 1 µM: 50 to 75% for the first, ≥ 75% for the second.

`COC(=O)c1cc2ncnc(NCC3CC3)c2s1` [Ref. example 30, methyl 4-((cyclopropylmethyl)amino)thieno[3,2-d]pyrimidine-6-carboxylate] and `CN1CCC(Oc2ncnc3cc(I)sc23)CC1` [Ref. example 36, 6-iodo-4-((1-methylpiperidin-4-yl)oxy)thieno[3,2-d]pyrimidine] cannot be ordered by remaining binding at 1 µM: ≥ 75% for the first, ≥ 75% for the second.

`CN1CCC(Oc2ncnc3cc(-c4cnn(C)c4)sc23)CC1` [Ref. example 31, 6-(1-methyl-1H-pyrazol-4-yl)-4-((1-methylpiperidin-4-yl)oxy)thieno[3,2-d]pyrimidine] and `C#Cc1cc2ncnc(OC3CCN(C)CC3)c2s1` [Ref. example 32, 6-ethynyl-4-((1-methylpiperidin-4-yl)oxy)thieno[3,2-d]pyrimidine] cannot be ordered by remaining binding at 1 µM: ≥ 75% for the first, ≥ 75% for the second.

`Ic1cc2ncnc(OC3CCOCC3)c2s1` [Ref. example 34, 6-iodo-4-((tetrahydro-2H-pyran-4-yl)oxy)thieno[3,2-d]pyrimidine] and `Ic1cc2ncnc(OC3CCSCC3)c2s1` [Ref. example 35, 6-iodo-4-((tetrahydro-2H-thiopyran-4-yl)oxy)thieno[3,2-d]pyrimidine] cannot be ordered by remaining binding at 1 µM: ≥ 75% for the first, ≥ 75% for the second.

`O=S1(=O)CCC(Oc2ncnc3cc(I)sc23)CC1` [Ref. example 37, 4-((6-iodothieno[3,2-d]pyrimidin-4-yl)oxy)tetrahydro-2H-thiopyran 1,1-dioxide] and `CS(=O)(=O)N1CCC(Oc2ncnc3ccsc23)CC1` [Ref. example 39, 4-((1-(methylsulfonyl)piperidin-4-yl)oxy)thieno[3,2-d]pyrimidine] cannot be ordered by remaining binding at 1 µM: ≥ 75% for the first, 50 to 75% for the second.

In the case of `O=S(=O)(c1c(F)cccc1F)N1CCC(Oc2ncnc3ccsc23)CC1` [Ref. example 38, 4-((1-((2,6-difluorophenyl)sulfonyl)piperidin-4-yl)oxy)thieno[3,2-d]pyrimidine], the remaining binding at 1 µM is reported as 25 to 50%.
